# Read-outs that look alike come from different tables or passages of the source.
# What was measured:
# TcBDF3 [1] = target: T1, TcBDF3 (Trypanosoma cruzi, UniProt Q4DXV1); assay: Thermal shift assay (DSF), dissociation constants; format: binding; details: full-length TcBDF3; SD from three independent experiments
# Description: The proteins were buffered in 10-mM HEPES, pH 7.5, and 500 mM NaCl and assayed in a 48-well plate at a final concentration of 2 μM in a volume of 20 μL. Compounds were added at a final concentration between 1 and 200 μM to calculate dissociation constants. In this assay, A1B4, A1B4c, A5B4 and A5B4c were used. SYPRO Orange (Invitrogen) was added as a fluorescence probe at a dilution of 1:1000. The excitation and emission filters for the SYPRO Orange dye were set at 465 and 590 nm, respectively. The temperature was increased with steps of 2°C/min from 25°C to 96°C, and fluorescence readings were taken at each interval in a CFX Opus 96 Real-Time System (Biorad) and analyzed using Maestro Software (Biorad). The melting curves and average melting temperature for each condition were obtained and plotted in temperature vs. concentration graphs in GraphPad Prism 9.0. Plots were fitted using the differential fluorescence scanning (DSF) single binding site equation to obtain the dissociation constants (Kd) in GraphPad Prism 9.0.
# TcBDF3 [2] = target: T1, TcBDF3; assay: Fluorescence polarization (FP) assay, displacement of BSP-AF488 probe; format: binding; details: 0.5 μM BSP-AF488, 100-μM TcBDF3
# Description: FP measurement was performed on a Cary Eclipse spectrophotometer equipped with a polarizer at an excitation wavelength of 488 nm and an emission wavelength of […] in a 3-ml fluorescence cuvette. The essay was set at a final volume of 2 mL, 0.5 μM of BSP-AF488, 100-μM TcBDF3, phosphate pH = 8, glycerol 1%, and DMSO 0.5%. The FP values were plotted against the log of the compound concentrations in a non-linear regression model in GraphPad Prism 9.0 as previously described ([Zhang et al., 2002]). In this assay, A1B4, A1B4c, and A5B4c were used. Briefly, free and bound probes (BSP-AF488 in the presence of TcBDF3) were included in each replica. Since the intensity of the probe remains similar for all samples, the fraction of the probe bound to TcBDF3 is correlated to the mP value. Thus, the percentage of inhibition can be derived from the equation % inhibition =100[1 − (mP − mPf)/(mPb − mPf)], in which mPf is the free probe control and mPb is the bound probe control. Based on the percentage of inhibition, the inhibitory concentration (IC50), or the inhibitor concentration at which 50% of the bound probe is displaced, is obtained by fitting the inhibition data.
# [3] = system: T. cruzi Dm28c epimastigotes; assay: Beta-galactosidase assay, epimastigotes; format: cell-based, Trypanosoma cruzi; details: for SI (E), CC50/IC50 epimastigotes: CC50 Vero cells / IC50; for IC50: Dm28c strain expressing β-galactosidase, read-out: IC50 ± SD Epimastigotes
# Description: (§1) T. cruzi Dm28c that expresses the E. coli LacZ gene epimastigotes, trypomastigotes, and amastigotes were cultured and obtained as previously described ([Buckner et al., 1996]; [Alonso et al., 2021]). […] The controls included for the amastigotes (intracellular stage) were (a) uninfected cells and (b) infected with 1 μg/mL benznidazole (BZ) (positive control) and 1% DMSO to evaluate the toxicity of the solvent. For epimastigotes and trypomastigotes, the controls used were: 1-μg/ml benznidazole (BZ) (positive control) and 1% DMSO to evaluate solvent toxicity. Results obtained with this assay were verified by manually counting the parasites. The results were expressed as the percentage of inhibition of T. cruzi growth in compound-treated infected cells compared to untreated infected cells for amastigotes. For epimastigotes and trypomastigotes, treated and untreated cultured parasites were compared. Quadruplicates were run in the same microplate and repeated in three experiments. Half-maximal IC50 values were calculated using non-linear regression on GraphPad Prism 9.0, as previously described ([Alonso et al., 2021]).
# [4] = system: T. cruzi Dm28c trypomastigotes; assay: Beta-galactosidase assay, trypomastigotes; format: cell-based, Trypanosoma cruzi; details: for SI (T), CC50/IC50 trypomastigotes: CC50 Vero cells / IC50
# Description: as §1
# [5] = system: T. cruzi Dm28c amastigotes; assay: Beta-galactosidase assay, amastigotes in Vero cells; format: cell-based, Trypanosoma cruzi; details: for SI (A), CC50/IC50 amastigotes: CC50 Vero cells / IC50; for IC50: Dm28c strain expressing β-galactosidase, 48 h postinfection of Vero cells, read-out: IC50 ± SD Amastigotes
# Description: as §1
# [6] = MTT assay, cell viability; format: cell-based; details: African green monkey, Vero cells
# Description: The 3-(4,5-dimethylthiazol-2-yl)-2,5-diphenyltetrazolium bromide (MTT) reduction assay determined cell viability after treatment as previously described ([García et al., 2018]). Optical density (OD) was spectrophotometrically quantified (λ = 540 nm) using a Synergy HT multidetection microplate reader. DMSO was used as blank, and each treatment was performed in triplicates. The 50% cytotoxic concentration (CC50) values were calculated by non-linear regression on GraphPad Prism 9.0, and the selectivity indexes (SI) were determined as the ratio CC50/IC50 in all three life cycle stages.
# [7] = system: TcBD2 (recombinant bromodomain of TcBDF2); assay: Tryptophan intrinsic fluorescence quenching assay; format: binding, Trypanosoma cruzi; details: 10-μM protein; 5, 10 and 20 μM compound; cut-off 0.9 normalized units
# Description: (§2) 96-well black microplates with 10-μM recombinant proteins (TcBDF3, TcBDF3m, TcBD3, and TcBD2) and three concentrations of each compound were used (5, 10, and 20 μM). In this assay, A1B4 and iBET-151 (positive control) were used. All determinations were made from the top with an excitation wavelength of 275 and a 340/30 nm emission filter, 50 reads per well, and a PMT-sensitivity setting of 180 in a Synergy HT multidetection microplate reader equipped with time-resolved capable optics. Each condition was tested in triplicates, and normalized maximum fluorescence intensityvs. Concentration was plotted using GraphPad Prism 9.0. The relative fluorescence intensity obtained to the condition without the inhibitor was normalized.
# [8] = system: TcBD3 (bromodomain of TcBDF3, amino acids 1-151); assay: Tryptophan intrinsic fluorescence quenching assay; format: binding, Trypanosoma cruzi; details: 10-μM protein; 5, 10 and 20 μM compound; cut-off 0.9 normalized units
# Description: as §2
# [9] = system: TcBDF3m (Y123A and L130A); assay: Tryptophan intrinsic fluorescence quenching assay; format: binding, Trypanosoma cruzi; details: 10-μM protein; 5, 10 and 20 μM compound; cut-off 0.9 normalized units
# Description: as §2
# TcBDF3 [10] = target: T1, TcBDF3; details: full-length TcBDF3; previously published; ref García et al., 2018; read-out: Kd ± SD DSF; cited from earlier work
# [11] = system: T. cruzi Dm28c epimastigotes; design: method as in García et al., 2018; details: already published, ref García et al., 2018, cited from earlier work
# [12] = system: T. cruzi Dm28c trypomastigotes; design: method as in García et al., 2018; details: already published, ref García et al., 2018, cited from earlier work
# [13] = system: T. cruzi Dm28c amastigotes; design: method as in García et al., 2018; details: already published, ref García et al., 2018, cited from earlier work
# Vero cells = system: Vero cells; design: method as in García et al., 2018; details: MTT; already published; ref García et al., 2018; cited from earlier work
# T1 sequence (Q4DXV1 entry or part of it): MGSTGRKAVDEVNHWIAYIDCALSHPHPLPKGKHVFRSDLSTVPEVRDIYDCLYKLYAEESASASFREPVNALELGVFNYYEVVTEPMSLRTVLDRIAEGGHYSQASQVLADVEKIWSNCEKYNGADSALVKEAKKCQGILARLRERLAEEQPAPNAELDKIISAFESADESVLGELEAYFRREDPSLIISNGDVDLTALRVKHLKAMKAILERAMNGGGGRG
SMILES,Kd (TcBDF3 [1]),IC50 (TcBDF3 [2]),"SI (E), CC50/IC50 epimastigotes [3]",IC50 ([3]; Trypanosoma cruzi),"SI (T), CC50/IC50 trypomastigotes [4]","SI (A), CC50/IC50 amastigotes [5]","IC50 ([5]; Trypanosoma cruzi, Vero, 48 h)",CC50 [6],further results
"O=C(N/N=C/c1ccc(CO)o1)c1cccs1 [A5B4, (E/Z)-N′-((5-(hydroxymethyl)furan-2-yl)methylene) thiophene-2-carbohydrazide]",136 ± 2.4 µM,,,,,,,,
"OCc1ccc(-c2nnc(-c3cccs3)o2)o1 [A5B4c, (5-(5-(thiophene-2-yl)-1,3,4-oxadiazol-2-yl)furan-2-yl)methanol]",4.8 ± 0.2 µM,10.5 ± 0.9 µM,21.3,14.8 ± 1.38 µM,23.5,37,8.49 ± 1.63 µM,316 ± 4.35 µM,"IC50 ([4]; Trypanosoma cruzi, Dm28c strain expressing β-galactosidase, read-out: IC50 ± SD Tripomastigotes): 13.4 ± 1.25 µM"
"COc1cc(-c2nnc(-c3cccs3)o2)ccc1O [A1B4c, 2-methoxy-4-(5-(thiophen-2-yl)-1,3,4-oxadiazol-2-yl)phenol]",4 ± 0.3 µM,8.4 ± 0.5 µM,11,< 10 µM,54.4,13,< 10 µM,90.8 ± 3.54 µM,IC50 [3]: 8.13 ± 0.87 µM; IC50 [5]: 6.9 ± 0.67 µM; melting point: 224 °C
"COc1cc(/C=N/NC(=O)c2cccs2)ccc1O [A1B4, (E)-N′-(4-hydroxy-3-methoxybenzylidene)thiophene-2-carbohydrazide]",,2.4 ± 0.3 µM,,,,,,,"Binding (fluorescence quenching) [7]: did not bind; Binding (fluorescence quenching) [8]: binds; Binding (fluorescence quenching) [9]: did not bind; Kd (TcBDF3 [10]): 1.7 ± 0.2 µM; IC50 ([11]; Dm28c strain expressing β-galactosidase, read-out: IC50 ± SD Epimastigotes): 23 ± 2.04 µM; SI (E), CC50/IC50 epimastigotes [11]: 11.7; IC50 ([12]; Dm28c strain expressing β-galactosidase, read-out: IC50 ± SD Tripomastigotes): 17.8 ± 2.13 µM; SI (T), CC50/IC50 trypomastigotes [12]: 15; IC50 ([13]; Dm28c strain expressing β-galactosidase, read-out: IC50 ± SD Amastigotes): 13.1 ± 1.43 µM; SI (A), CC50/IC50 amastigotes [13]: 20.5; CC50 (Vero cells): 269 ± 4.28 µM"

# Source: publication PMC11473290, “1,3,4-oxadiazoles as inhibitors of the atypical member of the BET family bromodomain factor 3 from Trypanosoma cruzi (TcBDF3)” (Frontiers in Microbiology, 2024)
